Where two headings read alike, the source gives them in different places.
Columns and labels:
PI3K alpha = PI3K alpha (Homo sapiens, UniProt P42336); test: PI3K-α assay (ADP-Glo enzyme inhibition); format: biochemical; settings: at 500 nm
Procedure, shortened: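 ADP-Glo read-out after an 80 min reaction with 0.01 mM ATP and 0.05 mM diC8 PIP2 in 12.5 mM glycine-NaOH pH 8.5, 50 mM KCl, 2.5 mM MgCl2, 1 mM DTT, 0.05% CHAPS. Luminescence read after 40 min ADP-Glo reagent and 40 min detection steps.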

MCF-7 Cell line = test: MTT cell proliferation assay, MCF-7; format: cell-based; settings: Homo sapiens, MCF7, 120 h, 5 days
Method: (§1) Human breast cancer cell lines MDAMB231, MFC-7 and human prostate carcinoma cell line PC-3 were obtained from European Collection of Cell Cultures (ECACC). Cells were grown in […] medium supplemented with 10% fetal bovine serum (FBS), penicillin (100 units/ml), streptomycin (100 μg/ml), L-glutamine (0.3 mg/ml), sodium pyruvate ([…]), and NaHCO3 (2 mg/ml). Cells were grown in CO2 incubator (Thermocon Electron Corporation, USA) at 37° C. in an atmosphere of 95% air and 5% CO2 with 98% humidity. Different molecules were dissolved in DMSO and were delivered to cell cultures in complete medium.
(§2) MTT assay was done to determine the viability of the cells and was done as described previously (Kumar et al, 2013). Briefly, 6×10^3 were seeded in 96 well plates and were treated with different concentrations of different molecules for 5 days. 20 μl of MTT dye (2.5 mg/ml) was added 3 h before the termination of the experiment. Formazen crystals were dissolved in 150 μl of DMSO and OD was measured at 570 nm.

PC-3 Cell line = test: MTT cell proliferation assay, PC-3; format: cell-based; settings: Homo sapiens, PC-3, 120 h, 5 days
Method: as §1, §2

MDA-MB231 Cell line = test: MTT cell proliferation assay, MDA-MB231; format: cell-based; settings: Homo sapiens, MDA-MB-231, 120 h, 5 days
Method: as §1, §2

[1] = read-out: In vitro PI3K α % of inhibition
[2] = read-out: inhibition against PI3K alpha

Sequence of PI3K alpha (P42336 whole entry, species assumed): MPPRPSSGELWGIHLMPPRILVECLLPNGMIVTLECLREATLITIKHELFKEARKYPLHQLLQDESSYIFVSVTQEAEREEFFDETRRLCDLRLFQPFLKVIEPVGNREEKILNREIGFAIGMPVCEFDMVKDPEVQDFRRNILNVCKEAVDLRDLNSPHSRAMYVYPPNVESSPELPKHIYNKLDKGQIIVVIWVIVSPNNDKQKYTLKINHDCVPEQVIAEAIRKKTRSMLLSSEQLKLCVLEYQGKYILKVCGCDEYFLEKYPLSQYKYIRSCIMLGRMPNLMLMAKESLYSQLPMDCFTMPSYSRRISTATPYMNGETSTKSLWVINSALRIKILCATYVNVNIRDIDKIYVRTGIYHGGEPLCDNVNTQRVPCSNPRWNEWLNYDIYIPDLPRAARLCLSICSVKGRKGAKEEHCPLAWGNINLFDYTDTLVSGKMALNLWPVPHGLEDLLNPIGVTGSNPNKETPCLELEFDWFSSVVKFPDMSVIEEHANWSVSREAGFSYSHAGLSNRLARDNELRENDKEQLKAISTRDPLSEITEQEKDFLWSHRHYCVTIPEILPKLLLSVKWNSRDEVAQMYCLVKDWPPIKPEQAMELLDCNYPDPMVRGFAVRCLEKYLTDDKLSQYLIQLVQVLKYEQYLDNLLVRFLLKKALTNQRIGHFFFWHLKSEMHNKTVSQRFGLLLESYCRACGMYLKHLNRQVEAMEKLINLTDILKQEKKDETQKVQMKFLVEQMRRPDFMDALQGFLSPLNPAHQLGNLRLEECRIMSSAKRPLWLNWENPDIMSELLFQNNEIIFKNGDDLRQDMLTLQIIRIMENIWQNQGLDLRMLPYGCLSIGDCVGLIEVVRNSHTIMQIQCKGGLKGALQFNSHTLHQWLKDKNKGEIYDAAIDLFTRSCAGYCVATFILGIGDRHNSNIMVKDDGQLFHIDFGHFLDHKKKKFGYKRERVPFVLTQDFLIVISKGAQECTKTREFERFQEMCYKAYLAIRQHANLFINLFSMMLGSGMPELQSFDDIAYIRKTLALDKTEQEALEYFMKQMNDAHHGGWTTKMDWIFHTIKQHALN
Sequence of PI3K alpha (P27986 whole entry partner, species assumed): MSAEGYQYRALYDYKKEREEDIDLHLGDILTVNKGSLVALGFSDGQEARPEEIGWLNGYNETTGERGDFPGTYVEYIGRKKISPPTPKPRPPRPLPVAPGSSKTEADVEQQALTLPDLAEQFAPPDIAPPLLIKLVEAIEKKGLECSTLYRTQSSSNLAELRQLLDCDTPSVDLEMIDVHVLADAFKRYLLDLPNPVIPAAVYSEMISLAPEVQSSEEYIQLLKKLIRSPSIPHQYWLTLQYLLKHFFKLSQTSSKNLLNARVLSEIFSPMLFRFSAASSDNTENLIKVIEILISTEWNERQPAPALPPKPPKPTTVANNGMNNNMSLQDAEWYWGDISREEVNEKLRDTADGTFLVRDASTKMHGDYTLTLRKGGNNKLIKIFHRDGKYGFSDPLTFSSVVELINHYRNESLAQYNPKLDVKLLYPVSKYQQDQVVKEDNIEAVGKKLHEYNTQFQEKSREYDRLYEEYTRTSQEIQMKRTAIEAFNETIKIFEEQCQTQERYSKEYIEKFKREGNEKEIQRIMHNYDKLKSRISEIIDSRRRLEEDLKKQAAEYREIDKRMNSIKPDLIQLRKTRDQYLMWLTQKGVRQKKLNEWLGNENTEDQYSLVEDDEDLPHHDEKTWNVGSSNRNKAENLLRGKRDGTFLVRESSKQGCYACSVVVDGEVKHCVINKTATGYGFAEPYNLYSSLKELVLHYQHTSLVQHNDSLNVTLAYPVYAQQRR

| SMILES | inhibition at 0.5 µM (PI3K alpha; [1]) [%] | inhibition at 0.5 µM (PI3K alpha; [2]) [%] | inhibition at 10 µM (MCF-7 Cell line) [%] | inhibition at 10 µM (PC-3 Cell line) [%] | inhibition at 10 µM (MDA-MB231 Cell line) [%] | In vitro PI3K α % of inhibition (PI3K alpha) |
| --- | --- | --- | --- | --- | --- | --- |
| Fc1ccc(OC2CCN(c3nc(N4CCOCC4)nc(-n4c(C(F)F)nc5ccccc54)n3)CC2)cc1 [1B1, 4-(4-(2-(difluoromethyl)-1H-benzo[d]imidazol-1-yl)-6-(4-(4-fluorophenoxy)piperidin-1-yl)-1,3,5-triazin-2-yl)morpholine] | > 70 | > 70 | > 50 | > 50 | > 50 |  |
| COc1ccc(OC2CCN(c3nc(N4CCOCC4)nc(-n4c(C(F)F)nc5ccccc54)n3)CC2)cc1 [1B2, 4-(4-(2-(difluoromethyl)-1H-benzo[d]imidazol-1-yl)-6-(4-(4-methoxyphenoxy)piperidin-1-yl)-1,3,5-triazin-2-yl)morpholine] | 50 to 70 |  | > 50 | 30 to 50 | > 50 |  |
| Cc1ccccc1OC1CCN(c2nc(N3CCOCC3)nc(-n3c(C(F)F)nc4ccccc43)n2)CC1 [1B12, 4-(4-(2-(difluoromethyl)-1H-benzo[d]imidazol-1-yl)-6-(4-(o-tolyloxy)piperidin-1-yl)-1,3,5-triazin-2-yl)morpholine] | > 70 | > 70 | > 50 | 30 to 50 | 30 to 50 |  |
| FC(F)c1nc2ccccc2n1-c1nc(N2CCOCC2)nc(N2CCC(Nc3ccc(Cl)c(Cl)c3)CC2)n1 [1B26, N-(3,4-dichlorophenyl)-1-(4-(2-(difluoromethyl)-1H-benzo[d]imidazol-1-yl)-6-morpholino-1,3,5-triazin-2-yl)piperidin-4-amine] | > 70 | > 70 | > 50 | 30 to 50 | > 50 |  |
| Fc1ccccc1NC1CCN(c2nc(N3CCOCC3)nc(-n3c(C(F)F)nc4ccccc43)n2)CC1 [1B27, 1-(4-(2-(difluoromethyl)-1H-benzo[d]imidazol-1-yl)-6-morpholino-1,3,5-triazin-2-yl)-N-(2-fluorophenyl)piperidin-4-amine] | 50 to 70 |  | > 50 | 30 to 50 | 30 to 50 |  |
| Cc1ccc(NC2CCN(c3nc(N4CCOCC4)nc(-n4c(C(F)F)nc5ccccc54)n3)CC2)cc1 [1B30, 1-(4-(2-(difluoromethyl)-1H-benzo[d]imidazol-1-yl)-6-morpholino-1,3,5-triazin-2-yl)-N-(p-tolyl)piperidin-4-amine] | 50 to 70 |  | > 50 | 30 to 50 | 30 to 50 |  |
| Cc1ccccc1NC1CCN(c2nc(N3CCOCC3)nc(-n3c(C(F)F)nc4ccccc43)n2)CC1 [1B32, 1-(4-(2-(difluoromethyl)-1H-benzo[d]imidazol-1-yl)-6-morpholino-1,3,5-triazin-2-yl)-N-(o-tolyl)piperidin-4-amine] | 50 to 70 |  | > 50 | 30 to 50 | 30 to 50 |  |
| FC(F)c1nc2ccccc2n1-c1nc(N2CCOCC2)nc(N2CCOCC2)n1 [ZSTK474, reference compound] |  |  | > 50 | > 50 | > 50 | ++ (++ indicates greater than 70% of inhibition) |
